Test results reported in patent US20110230481A2, “DERIVATIVES OF TETRABROMOBENZIMIDAZOLE, A PROCESS FOR THE PREPARATION THEREOF, A PHARMACEUTICAL COMPOSITION COMPRISING THE SAME, A METHOD OF USING THE SAME, A METHOD FOR MODULATING OR REGULATING SERINE/THREONINE KINASES, AND SERINE/THREONINE KINASES MODULATING AGENT” (SELVITA S.A., priority 2009, published 2011).

Legend:
Experiment in all cases: KINOMEscan Max
Assay type in all cases: binding
TAK1 = target: T1, TAK1 (Homo sapiens, UniProt O43318)
T1 construct: purchased Ambit (KINOMEscan Max service)
How it was run: (§1)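 Compound displacement of DNA-tagged kinase from immobilized active-site ligand; qPCR of tag as read-out.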

MINK = MINK (Homo sapiens, UniProt Q8N4C8)
How it was run: as §1

MAPKAPK2 = target: T2, MAPKAPK2 (Homo sapiens, UniProt P49137)
T2 construct: purchased Ambit Kinomescan (contract panel)
How it was run: as §1

p38-gamma = p38-gamma (Homo sapiens, UniProt P53778)
How it was run: as §1

FGFR4 = target: T3, FGFR4 (Homo sapiens, UniProt P22455)
T3 construct: purchased Ambit (KINOMEscan Max service)
How it was run: as §1

DCAMKL3 = target: T4, DCAMKL3 (Homo sapiens, UniProt Q9C098)
T4 construct: purchased Ambit (KINOMEscan Max panel service)
How it was run: as §1

IRAK4 = target: T5, IRAK4 (Homo sapiens, UniProt Q9NWZ3); details: 1 μM
T5 construct: purchased Ambit Kinomescan (contract panel)
How it was run: as §1

GRK4 = target: T6, GRK4 (Homo sapiens, UniProt P32298)
T6 construct: purchased Ambit Kinomescan (contract panel, KINOMEscan Max)
How it was run: as §1

MAP3K4 = target: T7, MAP3K4 (Homo sapiens, UniProt Q9Y6R4)
T7 construct: purchased Ambit Kinomescan (contract panel)
How it was run: as §1

MEK1 = target: T8, MEK1 (Homo sapiens, UniProt Q02750)
T8 construct: purchased Ambit Kinomescan (contract panel)
How it was run: as §1

MARK1 = target: T9, MARK1 (Homo sapiens, UniProt Q9P0L2)
T9 construct: purchased Ambit Kinomescan (contract panel)
How it was run: as §1

VEGFR2 = target: T10, VEGFR2 (Homo sapiens, UniProt P35968)
T10 construct: purchased Ambit Kinomescan (contract screening)
How it was run: as §1

EPHA5 = target: T11, EPHA5 (Homo sapiens, UniProt P54756); details: 1 μM
T11 construct: purchased Ambit (KINOMEscan Max panel service)
How it was run: as §1

PIP5K2B = target: T12, PIP5K2B (Homo sapiens, UniProt P78356)
T12 construct: purchased Ambit Kinomescan (contract screening)
How it was run: as §1

CAMK2D = target: T13, CAMK2D (Homo sapiens, UniProt Q13557)
T13 construct: DNA tag (qPCR label); purchased Ambit Kinomescan (contract screening)
How it was run: as §1

EGFR(L858R) = EGFR(L858R) (Homo sapiens, UniProt P00533, L858R); details: 1 μM
How it was run: as §1

FES = target: T14, FES (Homo sapiens, UniProt P07332)
T14 construct: purchased Ambit Kinomescan (contract panel, KINOMEscan Max)
How it was run: as §1

ROCK1 = target: T15, ROCK1 (Homo sapiens, UniProt Q13464)
T15 construct: DNA tag (qPCR read-out)
How it was run: as §1

GRK1 = GRK1 (Homo sapiens, UniProt Q15835)
How it was run: as §1

PFCDPK1(P.falciparum) = target: T16, PFCDPK1(P.falciparum) (Plasmodium falciparum, UniProt P62344)
T16 construct: purchased Ambit Kinomescan (contract screening)
How it was run: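 Competition binding assay: test compound competes with an immobilized, active-site directed ligand for DNA-tagged kinase. Kinase captured on the ligand is quantified by qPCR of the DNA tag.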

AXL = target: T17, AXL (Homo sapiens, UniProt P30530)
T17 construct: DNA tag (qPCR read-out)
How it was run: as §1

ABL1-phssophorylated = ABL1-phssophorylated (Homo sapiens, UniProt P00519)
How it was run: as §1

EGFR(L861Q) = EGFR(L861Q) (Homo sapiens, UniProt P00533, L861Q); details: 1 μM
How it was run: as §1

CAMK4 = target: T18, CAMK4 (Homo sapiens, UniProt Q16566)
T18 construct: DNA tag (qPCR label); purchased Ambit Kinomescan (contract screening)
How it was run: as §1

DRAK2 = target: T19, DRAK2 (Homo sapiens, UniProt O94768)
T19 construct: purchased Ambit (KINOMEscan Max panel service)
How it was run: as §1

ABL1-nonphosphorylated = ABL1-nonphosphorylated (Homo sapiens, UniProt P00519)
How it was run: as §1

LRRK2 = LRRK2 (Homo sapiens, UniProt Q5S007)
How it was run: as §1

KIT(A829P) = target: T20, KIT(A829P) (Homo sapiens, UniProt P10721, A829P)
T20 construct: purchased Ambit Kinomescan (contract panel)
How it was run: as §1

AURKA = AURKA (Homo sapiens, UniProt O14965)
How it was run: as §1

PRKCQ = PRKCQ (Homo sapiens, UniProt Q04759)
How it was run: as §1

PFTK1 = target: T21, PFTK1 (Homo sapiens, UniProt O94921); details: 1 μM
T21 construct: DNA tag (qPCR read-out)
How it was run: as §1

MUSK = target: T22, MUSK (Homo sapiens, UniProt O15146)
T22 construct: purchased Ambit Kinomescan (contract screening)
How it was run: as §1

MARK4 = target: T23, MARK4 (Homo sapiens, UniProt Q96L34); details: 1 μM
T23 construct: purchased Ambit (KINOMEscan Max service)
How it was run: as §1

LATS1 = target: T24, LATS1 (Homo sapiens, UniProt O95835)
T24 construct: purchased Ambit Kinomescan (contract panel)
How it was run: as §1

YES = target: T25, YES (Homo sapiens, UniProt P07947)
T25 construct: purchased Ambit Kinomescan (contract screening service)
How it was run: as §1

T2 sequence (P49137 whole entry): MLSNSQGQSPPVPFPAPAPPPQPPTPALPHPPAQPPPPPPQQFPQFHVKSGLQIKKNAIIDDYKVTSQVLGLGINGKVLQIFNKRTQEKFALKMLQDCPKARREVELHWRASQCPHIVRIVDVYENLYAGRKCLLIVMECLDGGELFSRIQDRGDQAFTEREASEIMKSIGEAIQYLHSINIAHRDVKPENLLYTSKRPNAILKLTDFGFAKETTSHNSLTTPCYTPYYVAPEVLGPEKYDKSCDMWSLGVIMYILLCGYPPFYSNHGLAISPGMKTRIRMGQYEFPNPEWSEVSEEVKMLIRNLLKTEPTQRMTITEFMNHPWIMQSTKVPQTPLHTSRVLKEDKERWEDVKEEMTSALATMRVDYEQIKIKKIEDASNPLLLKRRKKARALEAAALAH
T22 sequence (O15146 24-869): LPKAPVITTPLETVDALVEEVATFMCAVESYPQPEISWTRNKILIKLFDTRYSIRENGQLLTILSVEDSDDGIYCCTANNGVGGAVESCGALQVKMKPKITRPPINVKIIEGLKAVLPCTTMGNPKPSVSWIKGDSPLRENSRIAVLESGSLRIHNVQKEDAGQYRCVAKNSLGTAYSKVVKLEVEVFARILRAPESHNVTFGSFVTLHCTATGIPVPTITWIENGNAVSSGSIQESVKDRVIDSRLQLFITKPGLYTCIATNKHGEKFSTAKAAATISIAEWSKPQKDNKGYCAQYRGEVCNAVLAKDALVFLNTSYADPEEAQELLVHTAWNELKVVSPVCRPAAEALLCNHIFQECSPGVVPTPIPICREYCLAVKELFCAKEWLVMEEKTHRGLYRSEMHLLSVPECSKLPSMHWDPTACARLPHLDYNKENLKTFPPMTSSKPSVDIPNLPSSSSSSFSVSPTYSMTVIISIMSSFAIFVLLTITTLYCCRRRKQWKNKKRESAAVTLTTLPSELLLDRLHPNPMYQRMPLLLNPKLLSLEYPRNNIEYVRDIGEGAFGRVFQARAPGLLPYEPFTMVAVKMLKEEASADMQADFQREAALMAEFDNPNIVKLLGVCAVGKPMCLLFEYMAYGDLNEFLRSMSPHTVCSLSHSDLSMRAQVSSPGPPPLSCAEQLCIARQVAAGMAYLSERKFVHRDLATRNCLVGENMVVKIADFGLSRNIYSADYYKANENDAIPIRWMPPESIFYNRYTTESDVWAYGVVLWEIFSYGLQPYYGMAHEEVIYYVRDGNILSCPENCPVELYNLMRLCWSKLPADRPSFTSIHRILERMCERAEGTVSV
T23 sequence (Q96L34 whole entry): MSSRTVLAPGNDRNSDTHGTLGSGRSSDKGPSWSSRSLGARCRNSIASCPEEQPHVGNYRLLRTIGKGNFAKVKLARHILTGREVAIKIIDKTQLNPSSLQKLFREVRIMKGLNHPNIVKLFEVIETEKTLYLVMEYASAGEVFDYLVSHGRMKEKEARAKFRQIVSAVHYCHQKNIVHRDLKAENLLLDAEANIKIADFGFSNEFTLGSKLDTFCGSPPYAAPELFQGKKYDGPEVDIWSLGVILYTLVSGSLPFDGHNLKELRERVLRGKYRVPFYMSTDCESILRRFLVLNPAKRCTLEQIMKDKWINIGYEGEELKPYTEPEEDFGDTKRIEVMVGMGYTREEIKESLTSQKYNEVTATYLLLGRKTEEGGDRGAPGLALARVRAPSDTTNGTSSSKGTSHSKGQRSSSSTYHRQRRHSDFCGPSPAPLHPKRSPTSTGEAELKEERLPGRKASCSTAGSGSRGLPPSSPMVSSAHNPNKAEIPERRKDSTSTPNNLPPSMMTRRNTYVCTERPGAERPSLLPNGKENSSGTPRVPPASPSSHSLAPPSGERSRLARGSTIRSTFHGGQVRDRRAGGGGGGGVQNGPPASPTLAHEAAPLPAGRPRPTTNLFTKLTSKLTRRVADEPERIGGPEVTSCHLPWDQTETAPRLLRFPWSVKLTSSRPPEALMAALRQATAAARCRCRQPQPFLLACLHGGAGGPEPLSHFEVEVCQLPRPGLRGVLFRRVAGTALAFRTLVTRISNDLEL
Chain of MINK (Q8N4C8 whole entry): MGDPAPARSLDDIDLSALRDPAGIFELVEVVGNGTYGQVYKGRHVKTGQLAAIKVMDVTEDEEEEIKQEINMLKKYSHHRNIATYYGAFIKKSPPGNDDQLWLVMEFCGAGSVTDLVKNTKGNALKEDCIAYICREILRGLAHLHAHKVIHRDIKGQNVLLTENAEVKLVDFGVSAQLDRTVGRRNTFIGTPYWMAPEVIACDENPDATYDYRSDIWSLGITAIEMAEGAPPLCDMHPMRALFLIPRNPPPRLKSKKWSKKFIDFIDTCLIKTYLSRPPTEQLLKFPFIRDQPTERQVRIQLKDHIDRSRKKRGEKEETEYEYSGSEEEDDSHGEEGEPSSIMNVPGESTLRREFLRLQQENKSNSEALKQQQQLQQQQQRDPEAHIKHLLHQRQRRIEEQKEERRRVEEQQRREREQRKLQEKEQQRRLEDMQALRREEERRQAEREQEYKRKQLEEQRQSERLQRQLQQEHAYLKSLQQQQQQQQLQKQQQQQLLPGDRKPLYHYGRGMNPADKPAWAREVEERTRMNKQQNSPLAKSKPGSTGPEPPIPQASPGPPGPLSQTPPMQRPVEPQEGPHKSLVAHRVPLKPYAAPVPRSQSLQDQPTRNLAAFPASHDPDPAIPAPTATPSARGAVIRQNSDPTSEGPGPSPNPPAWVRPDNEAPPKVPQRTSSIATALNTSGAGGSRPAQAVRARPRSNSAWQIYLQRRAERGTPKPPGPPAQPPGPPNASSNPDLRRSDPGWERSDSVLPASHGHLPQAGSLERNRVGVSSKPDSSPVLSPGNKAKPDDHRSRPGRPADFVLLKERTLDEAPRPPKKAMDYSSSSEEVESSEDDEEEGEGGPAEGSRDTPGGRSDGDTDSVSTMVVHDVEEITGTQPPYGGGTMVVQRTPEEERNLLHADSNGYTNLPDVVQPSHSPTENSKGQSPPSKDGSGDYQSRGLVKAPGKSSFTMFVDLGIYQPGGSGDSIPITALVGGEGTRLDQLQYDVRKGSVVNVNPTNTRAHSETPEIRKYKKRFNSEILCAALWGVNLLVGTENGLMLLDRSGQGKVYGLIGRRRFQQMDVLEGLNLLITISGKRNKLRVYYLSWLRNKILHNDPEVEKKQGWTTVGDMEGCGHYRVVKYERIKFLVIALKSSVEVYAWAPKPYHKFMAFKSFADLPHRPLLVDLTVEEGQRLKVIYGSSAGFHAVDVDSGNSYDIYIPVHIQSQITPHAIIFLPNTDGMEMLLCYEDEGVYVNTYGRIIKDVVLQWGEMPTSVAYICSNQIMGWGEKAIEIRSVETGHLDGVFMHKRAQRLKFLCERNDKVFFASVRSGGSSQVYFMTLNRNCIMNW
T4 sequence (Q9C098 whole entry): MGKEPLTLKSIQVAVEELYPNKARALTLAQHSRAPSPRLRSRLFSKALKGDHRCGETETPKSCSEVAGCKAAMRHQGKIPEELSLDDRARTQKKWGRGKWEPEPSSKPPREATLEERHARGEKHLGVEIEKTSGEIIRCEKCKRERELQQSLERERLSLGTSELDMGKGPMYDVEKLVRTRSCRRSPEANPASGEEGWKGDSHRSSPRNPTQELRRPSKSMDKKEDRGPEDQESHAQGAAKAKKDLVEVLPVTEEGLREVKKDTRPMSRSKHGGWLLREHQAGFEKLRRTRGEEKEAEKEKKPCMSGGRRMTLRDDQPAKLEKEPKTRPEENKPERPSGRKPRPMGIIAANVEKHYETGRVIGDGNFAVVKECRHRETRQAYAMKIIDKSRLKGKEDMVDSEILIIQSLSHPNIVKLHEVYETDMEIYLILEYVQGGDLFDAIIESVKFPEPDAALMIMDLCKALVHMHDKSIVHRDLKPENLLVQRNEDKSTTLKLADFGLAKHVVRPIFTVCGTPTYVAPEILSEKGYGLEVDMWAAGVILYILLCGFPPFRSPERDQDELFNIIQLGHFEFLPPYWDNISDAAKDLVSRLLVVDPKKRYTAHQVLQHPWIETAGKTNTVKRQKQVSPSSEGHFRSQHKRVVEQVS
T6 sequence (P32298 whole entry): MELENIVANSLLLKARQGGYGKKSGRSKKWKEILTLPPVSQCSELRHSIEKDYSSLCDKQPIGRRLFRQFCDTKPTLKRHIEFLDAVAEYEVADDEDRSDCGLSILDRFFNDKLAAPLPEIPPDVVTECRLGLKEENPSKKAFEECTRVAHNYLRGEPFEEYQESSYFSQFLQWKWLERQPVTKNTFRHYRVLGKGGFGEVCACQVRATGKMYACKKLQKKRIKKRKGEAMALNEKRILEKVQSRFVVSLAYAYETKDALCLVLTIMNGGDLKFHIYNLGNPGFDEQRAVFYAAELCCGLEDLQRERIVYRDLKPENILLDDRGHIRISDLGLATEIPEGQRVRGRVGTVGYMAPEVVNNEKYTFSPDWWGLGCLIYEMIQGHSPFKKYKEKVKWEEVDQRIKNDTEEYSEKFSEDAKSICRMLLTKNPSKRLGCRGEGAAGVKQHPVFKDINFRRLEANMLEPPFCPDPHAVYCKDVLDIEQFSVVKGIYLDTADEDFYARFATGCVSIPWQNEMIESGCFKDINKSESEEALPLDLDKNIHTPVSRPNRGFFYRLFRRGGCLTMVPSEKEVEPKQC
T19 sequence (O94768 whole entry): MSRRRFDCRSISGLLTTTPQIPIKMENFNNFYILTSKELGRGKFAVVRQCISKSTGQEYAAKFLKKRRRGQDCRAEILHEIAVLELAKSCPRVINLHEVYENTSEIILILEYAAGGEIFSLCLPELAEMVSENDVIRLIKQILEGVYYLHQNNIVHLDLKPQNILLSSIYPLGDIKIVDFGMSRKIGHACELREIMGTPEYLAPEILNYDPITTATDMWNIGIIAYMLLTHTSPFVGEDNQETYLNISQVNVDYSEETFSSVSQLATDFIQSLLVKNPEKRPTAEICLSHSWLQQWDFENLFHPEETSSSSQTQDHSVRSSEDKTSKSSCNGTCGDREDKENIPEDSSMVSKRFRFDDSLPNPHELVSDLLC

NCCCNc1nc2c(Br)c(Br)c(Br)c(Br)c2[nH]1 [Compound 11, N-(3-aminopropyl)-4,5,6,7-tetrabromo-1H-benzo[d]imidazol-2-amine]
84%: remaining binding at 1 µM (FGFR4) | % binding (MARK4)
28%: remaining binding at 1 µM (ROCK1)
94%: remaining binding at 1 µM (ABL1-phssophorylated) | remaining binding at 1 µM (LRRK2)
76%: remaining binding at 1 µM (p38-gamma)
97%: remaining binding at 1 µM (PIP5K2B) | remaining binding at 1 µM (MUSK)
96%: remaining binding at 1 µM (VEGFR2) | % binding (EGFR(L858R)) | remaining binding at 1 µM (GRK1) | remaining binding at 1 µM (PFCDPK1(P.falciparum)) | % binding (EGFR(L861Q)) | remaining binding at 1 µM (AURKA)
90%: remaining binding at 1 µM (AXL)
77%: remaining binding at 1 µM (PRKCQ)
100%: remaining binding at 1 µM (MINK) | remaining binding at 1 µM (MAPKAPK2) | remaining binding at 1 µM (DCAMKL3) | % binding (IRAK4) | remaining binding at 1 µM (GRK4) | remaining binding at 1 µM (MAP3K4) | remaining binding at 1 µM (MEK1) | remaining binding at 1 µM (MARK1) | % binding (EPHA5) | remaining binding at 1 µM (CAMK2D) | remaining binding at 1 µM (FES) | remaining binding at 1 µM (CAMK4) | remaining binding at 1 µM (DRAK2) | remaining binding at 1 µM (ABL1-nonphosphorylated) | remaining binding at 1 µM (KIT(A829P)) | % binding (PFTK1) | remaining binding at 1 µM (LATS1) | remaining binding at 1 µM (YES)
65%: remaining binding at 1 µM (TAK1)
